The CheMixHub viscosity set

Assay: xn = mol fraction of the nth substance listed

CC(=O)O + CS(C)=O
viscosity [mPa·s]
Settings | 298.15 K | 303.15 K | 308.15 K | 313.15 K | 318.15 K | 323.15 K
101 kPa, x2 = 0.2 | 2.359 | – | – | – | – | –
101 kPa, x2 = 0.4 | 2.806 | – | – | – | – | –
101 kPa, x2 = 0.6 | 2.525 | – | – | – | – | –
101 kPa, x2 = 0.8 | 2.231 | – | – | – | – | –
101.33 kPa, x1 = 0.0999 | – | 1.891 | 1.728 | 1.588 | 1.463 | 1.353
101.33 kPa, x1 = 0.199 | – | 1.975 | 1.803 | 1.655 | 1.525 | 1.411
101.33 kPa, x1 = 0.2973 | – | 2.082 | 1.898 | 1.738 | 1.605 | 1.482
101.33 kPa, x1 = 0.4013 | – | 2.265 | 2.06 | 1.884 | 1.732 | 1.59
101.33 kPa, x1 = 0.5005 | – | 2.383 | 2.165 | 1.975 | 1.809 | 1.664
101.33 kPa, x1 = 0.5997 | – | 2.46 | 2.223 | 2.024 | 1.848 | 1.695
101.33 kPa, x1 = 0.6966 | – | 2.374 | 2.148 | 1.946 | 1.78 | 1.628
101.33 kPa, x1 = 0.8068 | – | 2.05 | 1.857 | 1.694 | 1.549 | 1.425
101.33 kPa, x1 = 0.9006 | – | 1.601 | 1.464 | 1.345 | 1.241 | 1.149
101.33 kPa, x2 = 0.0978 | 1.755 | – | 1.458 | – | 1.229 | –
101.33 kPa, x2 = 0.1997 | 2.299 | – | 1.876 | – | 1.552 | –
101.33 kPa, x2 = 0.2991 | 2.631 | – | 2.142 | – | 1.762 | –
101.33 kPa, x2 = 0.4069 | 2.728 | – | 2.228 | – | 1.84 | –
101.33 kPa, x2 = 0.5247 | 2.661 | – | 2.17 | – | 1.784 | –
101.33 kPa, x2 = 0.6036 | 2.465 | – | 2.034 | – | 1.694 | –
101.33 kPa, x2 = 0.7038 | 2.303 | – | 1.91 | – | 1.591 | –
101.33 kPa, x2 = 0.804 | 2.178 | – | 1.804 | – | 1.507 | –
101.33 kPa, x2 = 0.903 | 2.081 | – | 1.733 | – | 1.443 | –

CCC(C)Br (stereo unspecified) + CCC(C)O
viscosity [mPa·s], 101.3 kPa
Settings | x1 = 0.0514 | x1 = 0.1041 | x1 = 0.2027 | x1 = 0.2985 | x1 = 0.4321 | x1 = 0.5027 | x1 = 0.5839 | x1 = 0.702 | x1 = 0.8019 | x1 = 0.9029
298.15 K | 2.434 | 1.986 | 1.435 | 1.135 | 0.8991 | 0.8084 | 0.7285 | 0.6459 | 0.5996 | 0.5667
313.15 K | 1.495 | 1.276 | 1.006 | 0.8366 | 0.6849 | 0.6292 | 0.5794 | 0.5282 | 0.4961 | 0.4774
